This test concerns the target WDR5 (Homo sapiens (Human), UniProt P61964). Briefly: Surface Plasmon Resonance (SPR) assay, KD and residence time. The format is binding. The settings on record: surface plasmon resonance (SPR) assay; read-out: WDR5 binding affinity (KD). (In SPR one partner is held on a chip, and binding of the other changes the refractive index at the surface.)

Structures are written as SMILES.

The term Kd denotes a measure of binding affinity in units of concentration. In the case of `Cc1ncc(CN2CC=C(c3cc(NC(=O)c4c[nH]c(=O)cc4C(F)(F)F)c(N4C[C@@H](C)N(C)[C@@H](C)C4)cc3F)CC2)o1` [Example 163, N-[4-fluoro-5-[1-[(2-methyl-1,3-oxazol-5-yl)methyl]-3,6-dihydro-2H-pyridin-4-yl]-2-[(3R,5S)-3,4,5-trimethylpiperazin-1-yl]phenyl]-6-oxo-4-(trifluoromethyl)-1H-pyridine-3-carboxamide], the Kd was 4.05 nM.

As for `C[C@@H]1CN(c2cc(F)c(C3=CCN(Cc4cnn(C)c4)CC3)cc2NC(=O)c2c[nH]c(=O)cc2C(F)(F)F)C[C@H](C)N1C` [Example 164, N-[4-fluoro-5-[1-[(I-methylpyrazol-4-yl)methyl]-3,6-dihydro-2H-pyridin-4-yl]-2-[(3R,5S)-3,4,5-trimethylpiperazin-1-yl]phenyl]-6-oxo-4-(trifluoromethyl)-1H-pyridine-3-carboxamide], the Kd came to 1.43 nM. On to `C[C@@H]1CN(c2cc(F)c(C3=CCN(Cc4ccc(N5CCOCC5)cc4)CC3)cc2NC(=O)c2c[nH]c(=O)cc2C(F)(F)F)C[C@H](C)N1C` [Example 165, N-[4-fluoro-5-[1-[(4-morpholin-4-ylphenyl)methyl]-3,6-dihydro-2H-pyridin-4-yl]-2-[(3R,5S)-3,4,5-trimethylpiperazin-1-yl]phenyl]-6-oxo-4-(trifluoromethyl)-1H-pyridine-3-carboxamide], for which the Kd was 6.28 nM. As for `C[C@@H]1CN(c2cc(F)c(C3=CCN(Cc4ccc(N5CCN(C)CC5)cc4)CC3)cc2NC(=O)c2c[nH]c(=O)cc2C(F)(F)F)C[C@H](C)N1C` [Example 166, N-[4-fluoro-5-[1-[[4-(4-methylpiperazin-1-yl)phenyl]methyl]-3,6-dihydro-2H-pyridin-4-yl]-2-[(3R,5S)-3,4,5-trimethylpiperazin-1-yl]phenyl]-6-oxo-4-(trifluoromethyl)-1H-pyridine-3-carboxamide], the figure is 0.23 nM; as for `C[C@@H]1CN(c2cc(F)c(C3=CCN(CC4CCOCC4)CC3)cc2NC(=O)c2c[nH]c(=O)cc2C(F)(F)F)C[C@H](C)N1C` [Example 167, N-[4-fluoro-5-[1-(oxan-4-ylmethyl)-3,6-dihydro-2H-pyridin-4-yl]-2-[(3R,5S)-3,4,5-trimethylpiperazin-1-yl]phenyl]-6-oxo-4-(trifluoromethyl)-1H-pyridine-3-carboxamide], 5.76 nM. As for `CN(C)[C@@H]1CCN(c2cc(F)c(-c3cnc(N4CCOCC4)nc3)cc2NC(=O)c2cc(Cl)cc(Cl)c2)C1` [Example 168, 3,5-dichloro-N-[4-fluoro-5-(2-morpholin-4-ylpyrimidin-5-yl)-2-[(3R)-3-(dimethylamino)pyrrolidin-1-yl]phenyl]benzamide], the figure is 30 nM. As to `CN(C)[C@@H]1CCN(c2cc(F)c(-c3ccc(N4CCOCC4)cc3)cc2NC(=O)c2cc(Cl)cc(Cl)c2)C1` [Example 169, 3,5-dichloro-N-[4-fluoro-5-(4-morpholin-4-ylphenyl)-2-[(3R)-3-(dimethylamino)pyrrolidin-1-yl]phenyl]benzamide], the Kd is 122 nM.

As to `C[C@@H]1CN(c2cc(F)c(-c3cnc(N4CCOCC4)c(C#N)c3)cc2NC(=O)c2c[nH]c(=O)cc2C(F)(F)F)C[C@H](C)N1C` [Example 170, N-[5-(5-cyano-6-morpholin-4-ylpyridin-3-yl)-4-fluoro-2-[(3R,5S)-3,4,5-trimethylpiperazin-1-yl]phenyl]-6-oxo-4-(trifluoromethyl)-1H-pyridine-3-carboxamide], the Kd amounted to 1.17 nM. As for `Cc1cc(-c2cc(NC(=O)c3c[nH]c(=O)cc3C(F)(F)F)c(N3C[C@@H](C)N(C)[C@@H](C)C3)cc2F)cnc1N1CCOCC1` [Example 171, N-[4-fluoro-5-(5-methyl-6-morpholin-4-ylpyridin-3-yl)-2-[(3R,5S)-3,4,5-trimethylpiperazin-1-yl]phenyl]-6-oxo-4-(trifluoromethyl)-1H-pyridine-3-carboxamide], the figure is 2.5 nM; as for `C[C@@H]1CN(c2cc(F)c(-c3cnc4c(c3)CCN4)cc2NC(=O)c2c[nH]c(=O)cc2C(F)(F)F)C[C@H](C)N1C` [Example 172, N-[5-(2,3-dihydro-1H-pyrrolo[2,3-b]pyridin-5-yl)-4-fluoro-2-[(3R,5S)-3,4,5-trimethylpiperazin-1-yl]phenyl]-6-oxo-4-(trifluoromethyl)-1H-pyridine-3-carboxamide], 10.3 nM. For the compound `C[C@@H]1CN(c2cc(F)c(-c3cncc(C(F)(F)F)c3)cc2NC(=O)c2c[nH]c(=O)cc2C(F)(F)F)C[C@H](C)N1C` [Example 173, N-[4-fluoro-2-[(3R,5S)-3,4,5-trimethylpiperazin-1-yl]-5-[5-(trifluoromethyl)pyridin-3-yl]phenyl]-6-oxo-4-(trifluoromethyl)-1H-pyridine-3-carboxamide], the Kd amounted to 2.78 nM. On to `C[C@@H]1CN(c2cc(F)c(-c3cncc(C(=O)NC(C)(C)C)c3)cc2NC(=O)c2c[nH]c(=O)cc2C(F)(F)F)C[C@H](C)N1C` [Example 174, N-[5-[5-(tert-butylcarbamoyl)pyridin-3-yl]-4-fluoro-2-[(3R,5S)-3,4,5-trimethylpiperazin-1-yl]phenyl]-6-oxo-4-(trifluoromethyl)-1H-pyridine-3-carboxamide], for which the Kd was 1.53 nM. As for `C[C@@H]1CN(c2cc(F)c(-c3cnc(N4CCOCC4)nc3)cc2NC(=O)c2cc(Cl)cc(C(F)(F)F)c2)C[C@H](C)N1C` [Example 175, 3-chloro-N-[4-fluoro-5-(2-morpholin-4-ylpyrimidin-5-yl)-2-[(3R,5S)-3,4,5-trimethylpiperazin-1-yl]phenyl]-5-(trifluoromethyl)benzamide], the figure is 20.6 nM.

For the compound `C[C@@H]1CN(c2cc(F)c(-c3cnc(N4CCOCC4)nc3)cc2NC(=O)c2cc(F)cc(C(F)(F)F)c2)C[C@H](C)N1C` [Example 176, 3-fluoro-N-[4-fluoro-5-(2-morpholin-4-ylpyrimidin-5-yl)-2-[(3R,5S)-3,4,5-trimethylpiperazin-1-yl]phenyl]-5-(trifluoromethyl)benzamide], the Kd was 50.9 nM. In the case of `CN(C)[C@@H]1CCN(c2cc(F)c(-c3ccc(N4CCOCC4)cc3)cc2NC(=O)c2cn[nH]c2)C1` [Example 177, N-[4-fluoro-5-(4-morpholin-4-ylphenyl)-2-[(3R)-3-(dimethylamino)pyrrolidin-1-yl]phenyl]-1H-pyrazole-4-carboxamide], the Kd was greater than 200 nM. For `C[C@@H]1CN(c2cc(F)c(-c3cncc(C(N)=O)c3)cc2NC(=O)c2c[nH]c(=O)cc2C(F)(F)F)C[C@H](C)N1C` [Example 179, N-[5-(5-carbamoylpyridin-3-yl)-4-fluoro-2-[(3R,5S)-3,4,5-trimethylpiperazin-1-yl]phenyl]-6-oxo-4-(trifluoromethyl)-1H-pyridine-3-carboxamide], the Kd is 11.5 nM. The figure for `C[C@@H]1CN(c2cc(F)c(-c3cncc(C(F)(F)F)c3)cc2NC(=O)c2cn(C)c(=O)cc2C(F)(F)F)C[C@H](C)N1C` [Example 180, N-[4-fluoro-2-[(3R,5S)-3,4,5-trimethylpiperazin-1-yl]-5-[5-(trifluoromethyl)pyridin-3-yl]phenyl]-1-methyl-6-oxo-4-(trifluoromethyl)pyridine-3-carboxamide] is 35.4 nM. The figure for `CN(C)[C@@H]1CCN(c2cc(F)c(-c3cnc(N4CCOCC4)nc3)cc2NC(=O)c2cn(C)c(=O)cc2C(F)(F)F)C1` [Example 184, N-[4-fluoro-5-(2-morpholin-4-ylpyrimidin-5-yl)-2-[(3R)-3-(dimethylamino)pyrrolidin-1-yl]phenyl]-1-methyl-6-oxo-4-(trifluoromethyl)pyridine-3-carboxamide] is 9.8 nM.

As to `CN(C)[C@@H]1CCN(c2cc(F)c(-c3cnc(N4CCOCC4)nc3)cc2NC(=O)c2c[nH]nc2C(F)(F)F)C1` [Example 185, N-[4-fluoro-5-(2-morpholin-4-ylpyrimidin-5-yl)-2-[(3R)-3-(dimethylamino)pyrrolidin-1-yl]phenyl]-3-(trifluoromethyl)-1H-pyrazole-4-carboxamide], the Kd is 29.8 nM. As for `C[C@@H]1CN(c2cc(F)c(-c3cnc(N4CCOCC4)nc3)cc2NC(=O)c2cccc(C(F)(F)F)c2)C[C@H](C)N1C` [Example 186, N-[4-fluoro-5-(2-morpholin-4-ylpyrimidin-5-yl)-2-[(3R,5S)-3,4,5-trimethylpiperazin-1-yl]phenyl]-3-(trifluoromethyl)benzamide], the figure is 40.2 nM; as for `C[C@@H]1CN(c2cc(F)c(-c3cnc(N4CCOCC4)nc3)cc2NC(=O)c2cncnc2C(F)(F)F)C[C@H](C)N1C` [Example 187, N-[4-fluoro-5-(2-morpholin-4-ylpyrimidin-5-yl)-2-[(3R,5S)-3,4,5-trimethylpiperazin-1-yl]phenyl]-4-(trifluoromethyl)pyrimidine-5-carboxamide], 209 nM; as for `C[C@@H]1CN(c2cc(F)c(-c3cnc(N4CCOCC4)nc3)cc2NC(=O)c2scnc2C(F)(F)F)C[C@H](C)N1C` [Example 188, N-[4-fluoro-5-(2-morpholin-4-ylpyrimidin-5-yl)-2-[(3R,5S)-3,4,5-trimethylpiperazin-1-yl]phenyl]-4-(trifluoromethyl)-1,3-thiazole-5-carboxamide], 93.2 nM.

As to `C[C@@H]1CN(c2cc(F)c(-c3cnc(N4CCOCC4)nc3)cc2NC(=O)c2cc(C(F)(F)F)ccc2F)C[C@H](C)N1C` [Example 189, 2-fluoro-N-[4-fluoro-5-(2-morpholin-4-ylpyrimidin-5-yl)-2-[(3R,5S)-3,4,5-trimethylpiperazin-1-yl]phenyl]-5-(trifluoromethyl)benzamide], the dissociation constant (Kd) was 442 nM. As for `COc1cc(F)cc(C(=O)Nc2cc(-c3cnc(N4CCOCC4)nc3)c(F)cc2N2C[C@@H](C)N(C)[C@@H](C)C2)c1` [Example 190, 3-fluoro-N-[4-fluoro-5-(2-morpholin-4-ylpyrimidin-5-yl)-2-[(3R,5S)-3,4,5-trimethylpiperazin-1-yl]phenyl]-5-methoxybenzamide], the figure is 14.7 nM. As for `C[C@@H]1CN(c2cc(F)c(-c3ccc(N4CCOCC4)cc3)cc2NC(=O)c2cc(Cl)cc(Cl)c2)C[C@H](C)N1C` [Example 191, 3,5-dichloro-N-[4-fluoro-5-(4-morpholin-4-ylphenyl)-2-[(3R,5S)-3,4,5-trimethylpiperazin-1-yl]phenyl]benzamide], the figure is 21.5 nM.
